This passage reports GI50 results from US20240059698A1 (Accutar Biotechnology Inc., priority 2022, published 2024).

Holding throughout (format): cell-based
For assay [1], the system named is HCC827-ASV cells (human EGFR exon 20 insertion mutant V769_D770insASV). Briefly: Cell growth inhibition (CellTiter-Glo), HCC827-ASV. Particulars: 72 h, HCC827-ASV cells, 3 days, CellTiter-Glo, read-out: Cell growth inhibition, GI50 (nM) HCC827-ASV. Summed up:
(§1)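 Growth in RPMI with 10% FBS was measured by CellTiter-Glo luminescence after 3 days at 37 °C with test compounds across a concentration range. The single-clone HCC827 lines carry a lentiviral YVMA (ERBB2) or ASV (EGFR) exon 20 insertion, with endogenous EGFR removed via sgRNA/Cas9.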

Another assay relates to HCC827 cells. Briefly: Cell growth inhibition (CellTiter-Glo), HCC827. Conditions: Homo sapiens, 72 h, 3 days. A digest of the protocol:
(§2)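 Readout was CellTiter-Glo luminescence after 3-day compound treatment at 37° C. Cells were seeded at 5000/well the previous night: HCC827 in RPMI/10% FBS, A431 in DMEM/10% FBS.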

Assay [2] relates to HCC827-SVD cells (human EGFR exon 20 insertion mutant D770_N771insSVD). Briefly: Cell growth inhibition (CellTiter-Glo), HCC827-SVD. Conditions: 72 h, 3 days. A digest of the protocol: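 Growth read by CellTiter-Glo luminescence after 3-day compound exposure at 37 °C. Engineered clonal HCC827 line (native EGFR deleted by CRISPR, mutant EGFR re-expressed) plated at 5000 cells/well in 10% FBS RPMI the night before dosing.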
Background: ATP-based viability assays read luminescence as a measure of living cells.

In a further assay the test system is A431 cells. Briefly: Cell growth inhibition (CellTiter-Glo), A431. Conditions: Homo sapiens, A-431, 72 h, 3 days. Summed up:
as §2

The test system of assay [3] is HCC827-YVMA cells (human ERBB2 exon20 insertion mutant A775_G776ins YVMA). Briefly: Cell growth inhibition (CellTiter-Glo), HCC827-YVMA. Particulars: 72 h, HCC827-YVMA cells, 3 days, CellTiter-Glo, read-out: Cell growth inhibition, GI50 (nM) HCC827-YVMA. Summed up: as §1

As a reminder, the GI50 is the concentration giving 50% growth inhibition. For `C=CC(=O)N1CCC(c2csc3ncnc(Nc4ccc(Oc5ccnc(N6C[C@@H](C)O[C@@H](C)C6)c5)cc4F)c23)CC1` [Compound 159, 1-(4-(4-((4-((2-((2R,6S)-2,6-dimethylmorpholino)pyridin-4-yl)oxy)-2-fluorophenyl)amino)thieno[2,3-d]pyrimidin-5-yl)piperidin-1-yl)prop-2-en-1-one], the GI50 in assay [1] was 200 to 1000 nM; in the assay with HCC827 cells, more than 1000 nM; in assay [2], 200 to 1000 nM; in the assay with A431 cells it was more than 1000 nM; in assay [3], 200 to 1000 nM.
For `C=CC(=O)N1CC=C(c2c[nH]c3ncnc(Nc4ccc(OCc5ccccn5)c(Cl)c4)c23)CC1` [Compound 154, 1-(4-(4-((3-chloro-4-(pyridin-2-ylmethoxy)phenyl)amino)-7H-pyrrolo[2,3-d]pyrimidin-5-yl)-3,6-dihydropyridin-1(2H)-yl)prop-2-en-1-one], the GI50 was less than 50 nM in assay [1]; less than 50 nM in the assay with HCC827 cells; less than 50 nM in assay [2]; 200 to 1000 nM in the assay with A431 cells; less than 50 nM in assay [3].
As to `C=CC(=O)N1CCC(c2c[nH]c3ncnc(Nc4ccc(Oc5ccnc(N6C[C@@H](C)O[C@@H](C)C6)c5)cc4F)c23)CC1` [Compound 155, 1-(4-(4-((4-((2-((2S,6R)-2,6-dimethylmorpholino)pyridin-4-yl)oxy)-2-fluorophenyl)amino)-7H-pyrrolo[2,3-d]pyrimidin-5-yl)piperidin-1-yl)prop-2-en-1-one], the GI50 was 200 to 1000 nM in assay [1]; more than 1000 nM in the assay on HCC827 cells; 50 to 200 nM in assay [2]; more than 1000 nM in the assay on A431 cells; 50 to 200 nM in assay [3].
For the compound `C=CC(=O)N1CCC(c2n[nH]c3ncnc(Nc4ccc(Oc5ccnc(N6CC7CC7C6)c5)cc4F)c23)CC1` (centres unmarked) [Compound 180, 1-(4-(4-((4-((2-(3-azabicyclo[3.1.0]hexan-3-yl)pyridin-4-yl)oxy)-2-fluorophenyl)amino)-1H-pyrazolo[3,4-d]pyrimidin-3-yl)piperidin-1-yl)prop-2-en-1-one], the GI50 in assay [1] was 50 to 200 nM; in the assay on HCC827 cells, 200 to 1000 nM; in assay [2] it was 50 to 200 nM; in the assay with A431 cells, more than 1000 nM; in assay [3], less than 50 nM.
